Tested on: 349418-098-R-PDC complex spheroid viability
Test: Anticancer human tumor 349418-098-R-PDC patient-derived lung adenocarcinoma cell line growth inhibition [RAS]
Conditions: for IC50: curve of first compound; for viability, T/C: stronger effect = lower value
Method in brief: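 Tumour cells grown as complex spheroids with HUVEC endothelial cells and mesenchymal stem cells, treated with RAS pathway inhibitor combinations. Each agent spans half-log steps from near clinical Cmax, or 10 microM where Cmax is unknown.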

[1] = second compound 0.00316 µM, first compound 0.0316 µM
[2] = second compound 0.00316 µM, first compound 0.1 µM
[3] = second compound 0.00316 µM, first compound 0.316 µM
[4] = second compound 0.00316 µM, first compound 1 µM
[5] = second compound 0.00316 µM, first compound 3.16 µM
[6] = second compound 0.00316 µM, first compound 10 µM
[7] = second compound 0.01 µM, first compound 0.0316 µM
[8] = second compound 0.01 µM, first compound 0.1 µM
[9] = second compound 0.01 µM, first compound 0.316 µM
[10] = second compound 0.01 µM, first compound 1 µM
[11] = second compound 0.01 µM, first compound 3.16 µM
[12] = second compound 0.01 µM, first compound 10 µM
[13] = second compound 0.0316 µM, first compound 0.0316 µM
[14] = second compound 0.0316 µM, first compound 0.1 µM
[15] = second compound 0.0316 µM, first compound 0.316 µM
[16] = second compound 0.0316 µM, first compound 1 µM
[17] = second compound 0.0316 µM, first compound 3.16 µM
[18] = second compound 0.0316 µM, first compound 10 µM
[19] = second compound 0.1 µM, first compound 0.0316 µM
[20] = second compound 0.1 µM, first compound 0.1 µM
[21] = second compound 0.1 µM, first compound 0.316 µM
[22] = second compound 0.1 µM, first compound 1 µM
[23] = second compound 0.1 µM, first compound 3.16 µM
[24] = second compound 0.1 µM, first compound 10 µM
[25] = second compound 0.316 µM, first compound 0.0316 µM
[26] = second compound 0.316 µM, first compound 0.1 µM
[27] = second compound 0.316 µM, first compound 0.316 µM
[28] = second compound 0.316 µM, first compound 1 µM
[29] = second compound 0.316 µM, first compound 3.16 µM
[30] = second compound 0.316 µM, first compound 10 µM
[31] = second compound 1 µM, first compound 0.0316 µM
[32] = second compound 1 µM, first compound 0.1 µM
[33] = second compound 1 µM, first compound 0.316 µM
[34] = second compound 1 µM, first compound 1 µM
[35] = second compound 1 µM, first compound 3.16 µM
[36] = second compound 1 µM, first compound 10 µM
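Note: spheroids exposed to compound for seven days before viability readout.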

Which results are given for `CC1(O)CCCC1n1c(=O)c(C(F)F)cc2cnc(NC3CCN(S(C)(=O)=O)CC3)nc21` (centres undefined) + C=CC(=O)N1CCN(c2nc(OCC3CCCN3C)nc3c(F)c(-c4nc(N)cc(C)c4C(F)(F)F)c(Cl)cc23)C(C)C1?
IC50 (second compound 0.00316 µM): 76.8 nM; IC50 (second compound 0.01 µM): 102 nM; IC50 (second compound 0.0316 µM): 84.7 nM; IC50 (second compound 0.1 µM): 62.2 nM; IC50 (second compound 0.316 µM): 38.2 nM; IC50 (second compound 1 µM): 53.8 nM; viability, T/C [1]: 75.1%; viability, T/C [2]: 43.2%; viability, T/C [3]: 22.5%; viability, T/C [4]: 17%; viability, T/C [5]: 21.8%; viability, T/C [6]: 4.51%; viability, T/C [7]: 59.5%; viability, T/C [8]: 52.6%; viability, T/C [9]: 33.2%; viability, T/C [10]: 17.8%; viability, T/C [11]: 15.8%; viability, T/C [12]: 3.59%; viability, T/C [13]: 74.9%; viability, T/C [14]: 44.4%; viability, T/C [15]: 27.2%; viability, T/C [16]: 19.8%; viability, T/C [17]: 24.7%; viability, T/C [18]: 3.03%; viability, T/C [19]: 64.8%; viability, T/C [20]: 41%; viability, T/C [21]: 18.2%; viability, T/C [22]: 25.8%; viability, T/C [23]: 24.2%; viability, T/C [24]: 2.89%; viability, T/C [25]: 52.6%; viability, T/C [26]: 43.1%; viability, T/C [27]: 20.6%; viability, T/C [28]: 24.3%; viability, T/C [29]: 18.1%; viability, T/C [30]: 3.81%; viability, T/C [31]: 60.8%; viability, T/C [32]: 36%; viability, T/C [33]: 26.4%; viability, T/C [34]: 25.4%; viability, T/C [35]: 22.6%; viability, T/C [36]: 4.16%

What does the source list for `CCC(CC)c1cc(NC2CCC(N)C2)n2nccc2n1` (centres undefined) + C=CC(=O)N1CCN(c2nc(OCC3CCCN3C)nc3c(F)c(-c4nc(N)cc(C)c4C(F)(F)F)c(Cl)cc23)C(C)C1?
IC50 (second compound 0.00316 µM): 720 nM; IC50 (second compound 0.01 µM): 996 nM; IC50 (second compound 0.0316 µM): 797 nM; IC50 (second compound 0.1 µM): 884 nM; IC50 (second compound 0.316 µM): 588 nM; IC50 (second compound 1 µM): 1100 nM; viability, T/C [1]: 114%; viability, T/C [2]: 108%; viability, T/C [3]: 76.1%; viability, T/C [4]: 43.2%; viability, T/C [5]: 3.31%; viability, T/C [6]: 2.99%; viability, T/C [7]: 110%; viability, T/C [8]: 86.8%; viability, T/C [9]: 84.8%; viability, T/C [10]: 53.8%; viability, T/C [11]: 3.18%; viability, T/C [12]: 2.92%; viability, T/C [13]: 85.3%; viability, T/C [14]: 114%; viability, T/C [15]: 88%; viability, T/C [16]: 40.8%; viability, T/C [17]: 2.8%; viability, T/C [18]: 2.99%; viability, T/C [19]: 73%; viability, T/C [20]: 80.5%; viability, T/C [21]: 102%; viability, T/C [22]: 45.8%; viability, T/C [23]: 3.01%; viability, T/C [24]: 3.2%; viability, T/C [25]: 111%; viability, T/C [26]: 88.1%; viability, T/C [27]: 75.7%; viability, T/C [28]: 31.7%; viability, T/C [29]: 3.42%; viability, T/C [30]: 2.54%; viability, T/C [31]: 78.8%; viability, T/C [32]: 71.9%; viability, T/C [33]: 85.4%; viability, T/C [34]: 54.3%; viability, T/C [35]: 3.58%; viability, T/C [36]: 4.86%

Reference: PubChem BioAssay AID2060904 (Molecular Pharmacology Branch, DTP, NCI, 2025)
